Test results: publication PMC5851651, “Population-specific design of de-immunized protein biotherapeutics” (PLoS Computational Biology, 2018)

Assays:
[1] = tested on: DRB1*15:01, DRB1*03:01 and DRB1*07:01; assay: Experimental immunogenicity score: relative HLA binding combined across alleles, weighted by allele frequency; set-up: species or system human; key: allele-frequency-weighted sum of binding, % of control peptide signal; settings: for Difference to WT (Experimental Score): per peptide against wild-type counterpart; for Experimental Score: per peptide, weights DRB1*15:01 0.162, DRB1*07:01 0.146, DRB1*03:01 0.143
Experimental: (§1) To test the designs, we synthesized twenty overlapping 15-mer peptides containing the introduced mutations and their wild-type counterparts. The peptides maximally covered the predicted epitopes around the mutations of all designed constructs that contained one and two mutations (Supplementary S2 Table). The affinity of these peptides to the three HLA alleles was measured at time zero and after 24 hours (Methods, Supplementary S3 and S4 Tables). We linearly combined the measured relative affinity scores across HLA alleles weighted by their allele frequencies for each peptide respectively to produce a score that approximates the overall immunogenicity (Fig 5A). Results are presented for measurements taken at time point zero. […] Overall, the measured and predicted immunogenicity of the tested peptides correlated well with r = 0.76 (CI95 = [0.48, 0.91], t = 4.885, df = 17, p-value = 1.4e-4; Fig 5A). Next, we compared the predicted and measured gain or loss in immunogenicity for the whole region by reconstructing the targeted region using overlapping peptides. The measured relative scores were linearly combined (as previously) and then normalized to the number of overlapping peptides used in the reconstruction (Fig 5B). The difference in the measured scores between the wild type and mutant regions can be thought of as a proxy for gain or loss in immunogenicity and correlated well to the predicted changes (r = 0.86, CI95 = [0.40, 0.97], t = 4.136, df = 6, p-value = 6.1e-3; Fig 5B).
Fig 5 (A) Correlation of experimental and predicted immunogenicity of each peptide. The experimental immunogenicity score of a peptide is defined as the linear combination of the individual experimentally determined relative HLA binding affinity of each HLA allele h ∈ H weighted by the HLA allele frequency. (B) Correlation of experimental and predicted immunogenicity of the whole redesigned region. The summarized immunogenicity score of the whole region is the linear combination of the overlapping peptides used to reconstruct the region, normalized by total number of peptides used. The predicted immunogenicity scores per peptide were computed according to our immunogenicity objective function. The red lines are a fitted linear regression and the red tubes represent their 95-confidence interval.
(§2) In order to experimentally verify our in silico predictions for Factor VIII, we utilized the commercial REVEAL HLA-Peptide binding assay of ProImmune (www.proimmune.com). Peptides were synthesized using the PEPscreen custom library synthesis method, yielding high purity peptides for experimental analysis. HLA-peptide binding was assessed for the three HLA-DRB1 alleles used in this study (DRB1*15:01, DRB1*03:01 and DRB1*07:01). In short, the method compares the affinity of the studied peptide to the affinity of a high-affinity control peptide. Each peptide is then scored for binding to a certain HLA molecule relative to the score of the control peptide and reported as the percentage of the signal generated by the control peptide.

[2] = target: T1, DRB1*03:01 (Homo sapiens, UniProt P01903+P01911, A100K/A102G/A103R/A169T/F55Y/I96L/K41T/L162R/M171V/P40S/Q125H/Q178H/Q39Y/R42S/S66N/T106N/T262R/W38E/Y61H); assay: REVEAL HLA-Peptide binding assay (ProImmune); settings: score relative to high-affinity control peptide, percentage of the control signal
T1 construct: purchased ProImmune
Experimental: as §1, §2

[3] = target: T2, DRB1*15:01 (Homo sapiens, UniProt P01903+P01911); assay: REVEAL HLA-Peptide binding assay (ProImmune); settings: score relative to high-affinity control peptide, percentage of the control signal
T2 construct: purchased ProImmune
Experimental: as §1, §2

[4] = target: DRB1*07:01 (Homo sapiens, UniProt P01903+P01911, A100R/A102G/A103Q/D57E/D86V/E43K/F76Y/K127E/L162R/M171V/P40G/Q125H/Q99D/R33Q/R42Y/R54Q/S133A/S66F/T210M/V115G/Y107V/Y59L/Y89S); assay: REVEAL HLA-Peptide binding assay (ProImmune); settings: score relative to high-affinity control peptide, percentage of the control signal
Experimental: as §1, §2

[5] = time 0 (H0), listed as FTRYLRIHPQSWVHH
[6] = time 0 (H0), listed as FTRYLRIHPQSWEHQ
[7] = time 0 (H0), listed as VNSLDPPLLTRYLRI
[8] = time 0 (H0), listed as TTRYLRIHPQSWEHQ
[9] = time 0 (H0), listed as LTRHLRIHPQSWEHQ
[10] = time 0 (H0), listed as VNSLDPPLTTRYLRI
[11] = time 0 (H0), listed as LRIHPQSWVHQIALRM

| Sequence | Difference to WT (Experimental Score) ([1]; after 24 hours (H24)) | Experimental Score ([1]; after 24 hours (H24)) | Difference to WT (Experimental Score) ([1]; time 0 (H0)) | Experimental Score ([1]; time 0 (H0)) | DRB1*03:01 ([2]; after 24 hours (H24)) | DRB1*03:01 ([2]; time 0 (H0)) | DRB1*15:01 ([3]; after 24 hours (H24)) | DRB1*15:01 ([3]; time 0 (H0)) | DRB1*07:01 ([4]; after 24 hours (H24)) | DRB1*07:01 ([4]; time 0 (H0)) | other results |
| --- | --- | --- | --- | --- | --- | --- | --- | --- | --- | --- | --- |
| FTRYLRIHPQSWVHH [Design M-13, peptide covering L2321F, Q2335H] | -7.821 | 5.566 | -9.019 | 8.703 | 0.000% | 1.449% | 7.500% | 16.564% | 29.800% | 39.809% | DRB1*03:01 [2, 5]: 1.4%; DRB1*15:01 [3, 5]: 16.6%; DRB1*07:01 [4, 5]: 39.8% |
| FTRYLRIHPQSWEHQ [Design M-10, peptide covering L2321F, V2333E] | -9.338 | 4.049 | -10.856 | 6.865 | 0.000% | 0.020% | 0.300% | 2.906% | 27.400% | 43.779% | DRB1*03:01 [2, 6]: 0%; DRB1*15:01 [3, 6]: 2.9%; DRB1*07:01 [4, 6]: 43.8% |
| VNSLDPPLLTRYLRI [WT-1, wild-type peptide of Factor VIII C2 domain, reference compound] | – | 0.054 | – | 1.396 | 0.000% | 0.697% | 0.000% | 7.274% | 0.370% | 0.810% | DRB1*03:01 [2, 7]: 0.7%; DRB1*15:01 [3, 7]: 7.3%; DRB1*07:01 [4, 7]: 0.8% |
| TTRYLRIHPQSWEHQ [Design M-11, peptide covering L2321T, V2333E] | -5.886 | 7.501 | -6.123 | 11.598 | 0.000% | 0.544% | 1.600% | 6.575% | 49.600% | 71.612% | DRB1*03:01 [2, 8]: 0.5%; DRB1*15:01 [3, 8]: 6.6%; DRB1*07:01 [4, 8]: 71.6% |
| LTRYLKIHPQSWEHQ [Design M-9, peptide covering R2326K, V2333E] | -10.725 | 2.662 | -12.376 | 5.346 | 0.000% | 1.668% | 0.300% | 5.434% | 17.900% | 28.951% | – |
| LTRHLRIHPQSWEHQ [Design M-8, peptide covering Y2324H, V2333E] | -13.048 | 0.339 | -15.092 | 2.630 | 0.000% | 0.000% | 2.000% | 13.999% | 0.100% | 2.480% | DRB1*03:01 [2, 9]: 2.5%; DRB1*15:01 [3, 9]: 0.0%; DRB1*07:01 [4, 9]: 14.0% |
| VNSLDPPLTTRYLRI [Design M-2, peptide covering L2321T] | -0.054 | 0.000 | -1.367 | 0.029 | 0.000% | 0.100% | 0.000% | 0.000% | 0.000% | 0.100% | DRB1*03:01 [2, 10]: 0.1%; DRB1*15:01 [3, 10]: 0%; DRB1*07:01 [4, 10]: 0.1% |
| LRIHPQSWVHQIALRM [WT-4, wild-type peptide of Factor VIII C2 domain, reference compound] | – | 8.377 | – | 16.570 | 0.021% | 0.200% | 17.219% | 50.927% | 38.252% | 56.788% | DRB1*03:01 [2, 11]: 0.2%; DRB1*15:01 [3, 11]: 50.9%; DRB1*07:01 [4, 11]: 56.8% |
